We go through three compounds from US20230193336A1, “ENASIDENIB GLYCOSIDES AND METHODS OF TREATING DISEASES ASSOCIATED WITH ISOCITRATE DEHYDROGENASE (IDH) DYSFUNCTION” (Double Rainbow Biosciences Inc., priority 2020, published 2023).

The conditions of data set [1]: in vivo; cited from earlier work.
Data set [2] concerns AML patients with an IDH2 mutation. The settings on record: cited from earlier work.
Another data set in a line: physchem. In kind it is physicochemical. The protocol: The water solubility of enasidenib and enasidenib-O-D-glucoside was investigated by suspending excess amounts of the two compounds in 200 μl of distilled water in a microcentrifuge tube at 25° C. for 12 h. Afterwards, each sample was centrifuged at 12,000×g for 20 min. The supernatant of each sample was then filtered through a 0.45-μm membrane filter and the concentration of the compound in the supernatant, which is defined as the water-soluble component, was measured by its absorbance at 254 nm using HPLC, and its absolute solubility was calculated in reference to the concentration-absorbance standard curve.

For data set [3] the following is noted: 100 mg dose; cited from earlier work.
The subject of data set [4] is mouse xenograft models of AML. The conditions noted are these: cited from earlier work.
The test system of another data set is human AML patients. The settings on record: cited from earlier work.
For data set [5] the following is noted: clinical trials; cited from earlier work.
The subject of data set [6] is IDH2 R140 and R172 mutant homodimers or heterodimers. The settings on record: cited from earlier work.
The test system of data set [7] is cancer cell lines containing endogenous or exogenously expressed mutant IDH2. The conditions noted are these: cancer cell lines with endogenous or exogenously expressed mutant IDH2; cited from earlier work.
In the next data set the test system is cell culture assays. The settings on record: cited from earlier work.
A further data set has as its target T1, UGT1A1 (Homo sapiens, UniProt P22309).
T1 sequence (P22309 26-533): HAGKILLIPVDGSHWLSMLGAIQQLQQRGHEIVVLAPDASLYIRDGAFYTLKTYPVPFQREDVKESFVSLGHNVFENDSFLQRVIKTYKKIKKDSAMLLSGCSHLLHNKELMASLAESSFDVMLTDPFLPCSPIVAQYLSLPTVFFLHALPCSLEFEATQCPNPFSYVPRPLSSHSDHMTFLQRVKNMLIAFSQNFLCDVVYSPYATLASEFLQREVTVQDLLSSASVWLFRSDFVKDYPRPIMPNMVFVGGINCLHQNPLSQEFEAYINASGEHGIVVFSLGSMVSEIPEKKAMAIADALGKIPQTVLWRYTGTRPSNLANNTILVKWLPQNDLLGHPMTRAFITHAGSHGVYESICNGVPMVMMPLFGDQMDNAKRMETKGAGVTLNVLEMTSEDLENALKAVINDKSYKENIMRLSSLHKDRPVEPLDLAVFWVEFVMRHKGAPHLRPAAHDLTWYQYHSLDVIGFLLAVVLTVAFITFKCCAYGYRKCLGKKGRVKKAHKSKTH
The conditions noted are these: side effect: abnormal bilirubin metabolism; cited from earlier work.

For data set [8] the following is noted: cited from earlier work.

For orientation: solubility means the dissolved amount per volume that the medium holds. Low values mean a poorly soluble substance, high ones a readily soluble substance. As usually defined, the aqueous solubility is the concentration that dissolves in the medium under given conditions.

Values after ≈ are worked out from the molar mass of the structure shown. Read-outs that look alike come from different tables or passages of the source.

For the compound `C[C@@H](Nc1nc(N[C@H](C)C(F)(F)F)nc(-c2cccc(Cl)n2)n1)C(F)(F)F` [AG-881], the blood-brain barrier penetration entry in [1] was “can penetrate the blood-brain barrier”.
For the compound `CC(C)(O)CNc1nc(Nc2ccnc(C(F)(F)F)c2)nc(-c2cccc(C(F)(F)F)n2)n1` [enasidenib, Enasidenib], in [2] (human, in vivo), the “AML patients with an IDH2 mutation who experienced complete remission” value is listed as 19.3%. The overall response rate in data set [2] (single therapeutic, AML and relapsed/refractory-AML patients with an IDH2 mutation) is listed as 41%. In the data set “physchem” (25 °C, water, thermodynamic from solid), this compound came in with a solubility at 12 h of 6 µg/mL (≈ 12.7 µM). Further, in [3], the oral bioavailability is recorded as 57%. Moreover, the 2-HG concentration entry (in data set [4]; in the data set with human AML patients; in data set [7]) was “reduced the 2-HG concentration” each time. Besides, the “patients who completely discontinued enasidenib” value in data set [5] is given as 17%. Further, in data set [5], the “patients who had to stop taking the drug as a result of adverse events” value is listed as 43%. Also, the “patients with serious adverse events” value in data set [5] is recorded as “approximately 77%”. In addition, the “lower inhibitory concentration for mutant IDH2 compared to the wild type IDH2” value in data set [6] (R140 and R172 mutant homodimers or heterodimers versus wild type IDH2) is “approximately 40 fold”. Besides, in data set [6] (kinetics assays), the inhibition kinetics result is recorded as “slow on/slow off tight binding inhibition kinetics”. Besides, the differentiation result in the data set on cell culture assays was “induced differentiation”. Besides, the UGT1A1 inhibition entry on UGT1A1 is reported as “inhibition of UGT1A1”. Also, the results for the aqueous solubility result in [8] and in [8] (pH 7.4 (Yen et al. 2017)) were “less than 74 μg/mL” and 23 µM (≈ 10.9 µg/mL), respectively.
`CC(C)(CNc1nc(Nc2ccnc(C(F)(F)F)c2)nc(-c2cccc(C(F)(F)F)n2)n1)OC1O[C@H](CO)[C@@H](O)[C@H](O)[C@H]1O` (stereo partly drawn) [enasidenib-O-D-glucoside]: in the data set “physchem”, the water solubility is 40 µg/mL (≈ 62.9 µM) and the “water solubility relative to enasidenib” value came to 7 times.
